Measured values published in PubChem BioAssay (NCI).
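The concentration for 50% growth inhibition is given as GI50. TGI denotes the concentration required for complete inhibition of growth.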

Columns and labels:
Assay in all cases: NCI-60 cell line screen, 384-well format
[1] = tested on: SF-268 CNS
[2] = tested on: RXF 393 renal
[3] = tested on: HL-60(TB) leukemia
[4] = tested on: HCT-116 colon
[5] = tested on: NCI-H460 NSCLC
[6] = tested on: LOX IMVI melanoma
[7] = tested on: COLO 205 colon
[8] = tested on: SR leukemia
[9] = tested on: SK-OV-3 ovarian
[10] = tested on: SF-295 CNS
[11] = tested on: A498 renal
[12] = tested on: BT-549 breast
[13] = tested on: HCT-15 colon
[14] = tested on: DU-145 prostate
[15] = tested on: NCI-H226 lung
[16] = tested on: OVCAR-8 ovarian
[17] = tested on: NCI-H522 lung
[18] = tested on: HOP-92 NSCLC
[19] = tested on: NCI-H322M lung
[20] = tested on: UACC-62 melanoma
[21] = tested on: NCI-H23 lung
[22] = tested on: SNB-75 CNS
[23] = tested on: TK-10 renal
[24] = tested on: NCI/ADR-RES ovarian
[25] = tested on: MDA-MB-231 breast
[26] = tested on: SF-539 CNS
[27] = tested on: UACC-257 melanoma
[28] = tested on: CAKI-1 renal
[29] = tested on: K-562 leukemia
[30] = tested on: A549 NSCLC
[31] = tested on: SW-620 colon
[32] = tested on: T-47D breast
[33] = tested on: KM12 colon
[34] = tested on: SK-MEL-2 melanoma
[35] = tested on: MDA-MB-468 breast
[36] = tested on: U251 glioblastoma
[37] = tested on: SN12C renal
[38] = tested on: HOP-62 NSCLC
[39] = tested on: ACHN renal
[40] = tested on: RPMI-8226 leukemia
[41] = tested on: HT29 colon
[42] = tested on: SK-MEL-5 melanoma
[43] = tested on: HS 578T breast
[44] = tested on: EKVX NSCLC
[45] = tested on: OVCAR-4 ovarian
[46] = tested on: MALME-3M melanoma
[47] = tested on: M14 melanoma

C/C=C1\NC(=O)[C@H]2CSSCCC=C[C@H](CC(=O)N[C@H](C(C)C)C(=O)N2)OC(=O)[C@H](C(C)C)NC1=O
GI50 [1]: < 10 nM | TGI [1]: < 10 nM | GI50 [2]: < 10 nM | TGI [2]: < 10 nM | GI50 [3]: < 10 nM | TGI [3]: < 10 nM | GI50 [4]: < 10 nM | TGI [4]: < 10 nM | GI50 [5]: < 10 nM | TGI [5]: 10.1 nM | GI50 [6]: < 10 nM | TGI [6]: < 10 nM | GI50 [7]: < 10 nM | TGI [7]: < 10 nM | GI50 [8]: < 10 nM | TGI [8]: < 10 nM | GI50 [9]: < 10 nM | TGI [9]: < 10 nM | GI50 [10]: < 10 nM | TGI [10]: < 10 nM | GI50 [11]: < 10 nM | TGI [11]: < 10 nM | GI50 [12]: < 10 nM | TGI [12]: < 10 nM | GI50 [13]: 82.9 nM | TGI [13]: 806 nM | GI50 [14]: < 10 nM | TGI [14]: < 10 nM | GI50 [15]: < 10 nM | TGI [15]: 19.2 nM | GI50 [16]: < 10 nM | TGI [16]: < 10 nM | GI50 [17]: < 10 nM | TGI [17]: < 10 nM | GI50 [18]: < 10 nM | TGI [18]: < 10 nM | GI50 [19]: < 10 nM | TGI [19]: < 10 nM | GI50 [20]: < 10 nM | TGI [20]: < 10 nM | GI50 [21]: < 10 nM | TGI [21]: < 10 nM | GI50 [22]: < 10 nM | TGI [22]: < 10 nM | GI50 [23]: < 10 nM | TGI [23]: < 18.1 nM | GI50 [24]: 2850 nM | TGI [24]: 13800 nM | GI50 [25]: < 10 nM | TGI [25]: < 10 nM | GI50 [26]: < 10 nM | TGI [26]: < 10 nM | GI50 [27]: < 10 nM | TGI [27]: < 10 nM | GI50 [28]: < 10 nM | TGI [28]: < 10 nM | GI50 [29]: < 10 nM | TGI [29]: < 10 nM | GI50 [30]: < 10 nM | TGI [30]: < 10 nM | GI50 [31]: < 10 nM | TGI [31]: < 10 nM | GI50 [32]: < 10 nM | TGI [32]: < 10 nM | GI50 [33]: < 10 nM | TGI [33]: < 10 nM | GI50 [34]: < 10 nM | TGI [34]: < 10 nM | GI50 [35]: < 10 nM | TGI [35]: < 10 nM | GI50 [36]: < 10 nM | TGI [36]: < 10 nM | GI50 [37]: < 10 nM | TGI [37]: < 10 nM | GI50 [38]: < 10 nM | TGI [38]: < 10 nM | GI50 [39]: < 11.9 nM | TGI [39]: 23.3 nM | GI50 [40]: < 10 nM | TGI [40]: < 10 nM | GI50 [41]: < 10 nM | TGI [41]: < 10 nM | GI50 [42]: < 10 nM | TGI [42]: < 10 nM | GI50 [43]: < 10 nM | TGI [43]: < 10 nM | GI50 [44]: < 10 nM | TGI [44]: 30.8 nM | GI50 [45]: < 10 nM | TGI [45]: < 10 nM | GI50 [46]: < 10 nM | TGI [46]: < 10 nM | GI50 [47]: < 10 nM | TGI [47]: < 10 nM
